PubChem BioAssay AID2060488 (Molecular Pharmacology Branch, DTP, NCI, 2025)

Tested on: 966289-007-R4-J1-PDC complex spheroid viability
Assay: Anticancer human tumor 966289-007-R4-J1-PDC patient-derived pancreatic adenocarcinoma cell line growth inhibition [GQUAD]
Conditions: for IC50: curve of first compound; for viability, T/C: stronger effect = lower value
Procedure, shortened: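 Multi-cell-type spheroids of tumor cells with HUVEC and mesenchymal stem cells, treated with drug combinations. Concentrations descend in half-log steps from near clinical Cmax, or from 10 microM where Cmax is unknown; viability read-out.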

[1] = second compound 0.0316 µM, first compound 0.0316 µM
[2] = second compound 0.0316 µM, first compound 0.1 µM
[3] = second compound 0.0316 µM, first compound 0.316 µM
[4] = second compound 0.0316 µM, first compound 1 µM
[5] = second compound 0.0316 µM, first compound 3.16 µM
[6] = second compound 0.0316 µM, first compound 10 µM
[7] = second compound 0.1 µM, first compound 0.0316 µM
[8] = second compound 0.1 µM, first compound 0.1 µM
[9] = second compound 0.1 µM, first compound 0.316 µM
[10] = second compound 0.1 µM, first compound 1 µM
[11] = second compound 0.1 µM, first compound 3.16 µM
[12] = second compound 0.1 µM, first compound 10 µM
[13] = second compound 0.316 µM, first compound 0.0316 µM
[14] = second compound 0.316 µM, first compound 0.1 µM
[15] = second compound 0.316 µM, first compound 0.316 µM
[16] = second compound 0.316 µM, first compound 1 µM
[17] = second compound 0.316 µM, first compound 3.16 µM
[18] = second compound 0.316 µM, first compound 10 µM
[19] = second compound 1 µM, first compound 0.0316 µM
[20] = second compound 1 µM, first compound 0.1 µM
[21] = second compound 1 µM, first compound 0.316 µM
[22] = second compound 1 µM, first compound 1 µM
[23] = second compound 1 µM, first compound 3.16 µM
[24] = second compound 1 µM, first compound 10 µM
[25] = second compound 3.16 µM, first compound 0.0316 µM
[26] = second compound 3.16 µM, first compound 0.1 µM
[27] = second compound 3.16 µM, first compound 0.316 µM
[28] = second compound 3.16 µM, first compound 1 µM
[29] = second compound 3.16 µM, first compound 3.16 µM
[30] = second compound 3.16 µM, first compound 10 µM
[31] = second compound 10 µM, first compound 0.0316 µM
[32] = second compound 10 µM, first compound 0.1 µM
[33] = second compound 10 µM, first compound 0.316 µM
[34] = second compound 10 µM, first compound 1 µM
[35] = second compound 10 µM, first compound 3.16 µM
[36] = second compound 10 µM, first compound 10 µM
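Also: spheroids exposed to the agents for seven days before readout.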
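For viability, T/C in this document: percent viability relative to DMSO vehicle control wells taken as 100%.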

`COc1ccc([C@@H](O)c2cc(-c3ncnc4cc(N5CCOCC5)ccc34)c(F)cc2Cl)nn1` + CN(C)c1ccc(Nc2c3ccc(NC(=O)CCN4CCCC4)cc3nc3cc(NC(=O)CCN4CCCC4)ccc23)cc1 gave an IC50 (second compound 0.0316 µM) greater than 10 µM, an IC50 (second compound 0.1 µM) greater than 10 µM and an IC50 (second compound 0.316 µM) greater than 10 µM. It also gave an IC50 (second compound 1 µM) greater than 10 µM, an IC50 (second compound 3.16 µM) greater than 10 µM and an IC50 (second compound 10 µM) of 1.97 µM. It also gave a viability, T/C [1] of 104%, a viability, T/C [2] of 98.6% and a viability, T/C [3] of 104%. It also gave a viability, T/C [4] of 108%, a viability, T/C [5] of 110% and a viability, T/C [6] of 99.5%. It also gave a viability, T/C [7] of 101%, a viability, T/C [8] of 97.8% and a viability, T/C [9] of 103%. The viability, T/C [10] was 104%, the viability, T/C [11] was 109% and the viability, T/C [12] was 98.1%. It also gave a viability, T/C [13] of 99.8%, a viability, T/C [14] of 99.5% and a viability, T/C [15] of 106%. It also gave a viability, T/C [16] of 107%, a viability, T/C [17] of 107% and a viability, T/C [18] of 90.6%. The viability, T/C [19] was 101%, the viability, T/C [20] was 101% and the viability, T/C [21] was 107%. For the same molecule, the viability, T/C [22] was 108%, the viability, T/C [23] was 111% and the viability, T/C [24] was 93%. For the same molecule, the viability, T/C [25] was 101%, the viability, T/C [26] was 97.4% and the viability, T/C [27] was 108%. For the same molecule, the viability, T/C [28] was 105%, the viability, T/C [29] was 109% and the viability, T/C [30] was 83.4%. For the same molecule, the viability, T/C [31] was 103%, the viability, T/C [32] was 97.3% and the viability, T/C [33] was 101%. It also gave a viability, T/C [34] of 89.2%, a viability, T/C [35] of 22.6% and a viability, T/C [36] of 8.27%.
`O=C(NO)c1cnc(N2CCN(S(=O)(=O)c3ccc4ccccc4c3)CC2)nc1` + Cc1cnc(CNC(=O)c2c(=O)c3ccc(N4CCCN(C)CC4)nc3n3c2sc2ccccc23)cn1 showed an IC50 (second compound 0.0316 µM) of 0.209 µM, an IC50 (second compound 0.1 µM) of less than 0.0316 µM and an IC50 (second compound 0.316 µM) of less than 0.0316 µM. The IC50 (second compound 1 µM) was less than 0.0316 µM, the IC50 (second compound 3.16 µM) was less than 0.0316 µM and the IC50 (second compound 10 µM) was less than 0.0316 µM. For the same molecule, the viability, T/C [1] was 96.4%, the viability, T/C [2] was 87.3% and the viability, T/C [3] was 28.8%. The viability, T/C [4] was 8.77%, the viability, T/C [5] was 2.84% and the viability, T/C [6] was 0.33%. The viability, T/C [7] was 31.3%, the viability, T/C [8] was 31.9% and the viability, T/C [9] was 10.8%. It also gave a viability, T/C [10] of 4.55%, a viability, T/C [11] of 2.02% and a viability, T/C [12] of 0.31%. For the same molecule, the viability, T/C [13] was 7.24%, the viability, T/C [14] was 5.47% and the viability, T/C [15] was 3.67%. For the same molecule, the viability, T/C [16] was 2.76%, the viability, T/C [17] was 1.03% and the viability, T/C [18] was 0.05%. The viability, T/C [19] was 4.18%, the viability, T/C [20] was 2.98% and the viability, T/C [21] was 3.68%. The viability, T/C [22] was 0.86%, the viability, T/C [23] was 0.32% and the viability, T/C [24] was 0.05%. The viability, T/C [25] was 1.88%, the viability, T/C [26] was 2.14% and the viability, T/C [27] was 0.08%. For the same molecule, the viability, T/C [28] was 0.05%, the viability, T/C [29] was 0.06% and the viability, T/C [30] was 0.1%. The viability, T/C [31] was 0.03%, the viability, T/C [32] was 0.09% and the viability, T/C [33] was 0.1%. It also gave a viability, T/C [34] of 0.09%, a viability, T/C [35] of 0.53% and a viability, T/C [36] of 0.23%.
`CCc1c2c(nc3ccc(O)cc13)-c1cc3c(c(=O)n1C2)COC(=O)[C@]3(O)CC` + Cc1[nH]c2ccc(F)cc2c1-c1nc2c3cccnc3c3ncccc3c2[nH]1 showed an IC50 (second compound 0.0316 µM) of less than 0.000999 µM, an IC50 (second compound 0.1 µM) of less than 0.000999 µM and an IC50 (second compound 0.316 µM) of less than 0.000999 µM. For the same molecule, the IC50 (second compound 1 µM) was less than 0.000999 µM, the IC50 (second compound 3.16 µM) was less than 0.000999 µM and the IC50 (second compound 10 µM) was less than 0.000999 µM. For the same molecule, the viability, T/C (second compound 0.0316 µM, first compound 0.000999 µM) was 20.7%, the viability, T/C (second compound 0.0316 µM, first compound 0.00316 µM) was 0.77% and the viability, T/C (second compound 0.0316 µM, first compound 0.00999 µM) was 0.82%. The viability, T/C [1] was 0.49%, the viability, T/C (second compound 0.0316 µM, first compound 0.0999 µM) was 0.89% and the viability, T/C [3] was 0.5%. It also gave a viability, T/C (second compound 0.1 µM, first compound 0.000999 µM) of 17.3%, a viability, T/C (second compound 0.1 µM, first compound 0.00316 µM) of 0.75% and a viability, T/C (second compound 0.1 µM, first compound 0.00999 µM) of 0.91%. The viability, T/C [7] was 0.51%, the viability, T/C (second compound 0.1 µM, first compound 0.0999 µM) was 0.52% and the viability, T/C [9] was 0.36%. For the same molecule, the viability, T/C (second compound 0.316 µM, first compound 0.000999 µM) was 15.4%, the viability, T/C (second compound 0.316 µM, first compound 0.00316 µM) was 0.9% and the viability, T/C (second compound 0.316 µM, first compound 0.00999 µM) was 0.74%. It also gave a viability, T/C [13] of 0.45%, a viability, T/C (second compound 0.316 µM, first compound 0.0999 µM) of 0.43% and a viability, T/C [15] of 0.36%. For the same molecule, the viability, T/C (second compound 1 µM, first compound 0.000999 µM) was 14.3%, the viability, T/C (second compound 1 µM, first compound 0.00316 µM) was 1.12% and the viability, T/C (second compound 1 µM, first compound 0.00999 µM) was 0.71%. For the same molecule, the viability, T/C [19] was 0.56%, the viability, T/C (second compound 1 µM, first compound 0.0999 µM) was 0.34% and the viability, T/C [21] was 0.36%. For the same molecule, the viability, T/C (second compound 3.16 µM, first compound 0.000999 µM) was 9.81%, the viability, T/C (second compound 3.16 µM, first compound 0.00316 µM) was 1.09% and the viability, T/C (second compound 3.16 µM, first compound 0.00999 µM) was 0.59%. The viability, T/C [25] was 0.67%, the viability, T/C (second compound 3.16 µM, first compound 0.0999 µM) was 0.58% and the viability, T/C [27] was 0.4%. For the same molecule, the viability, T/C (second compound 10 µM, first compound 0.000999 µM) was 5.35%, the viability, T/C (second compound 10 µM, first compound 0.00316 µM) was 1.12% and the viability, T/C (second compound 10 µM, first compound 0.00999 µM) was 0.71%. It also gave a viability, T/C [31] of 0.43%, a viability, T/C (second compound 10 µM, first compound 0.0999 µM) of 0.31% and a viability, T/C [33] of 0.38%.
